The source of these data is ChEMBL document CHEMBL2062407, “Synthesis of N²-modified 7-methylguanosine 5'-monophosphates as nematode translation inhibitors” (Bioorg Med Chem, 2012).

Tested on in the first assay: not listed separately
Kind of assay: Inhibition of Ascaris suum eIF4E-3 assessed as inhibition of cap-dependent translation after 1 hr by cell-free Renilla luciferase reporter gene assay.
What is called IC50 is the concentration needed to halve the response being measured. In the case of `CCN(CC)c1nc2c(c(=O)[nH]1)[n+](C)cn2[C@@H]1O[C@H](COP(=O)([O-])O)[C@@H](O)[C@H]1O`, the IC50 was more than 50 µM.

`COc1ccc(CNc2nc3c(c(=O)[nH]2)[n+](C)cn3[C@@H]2O[C@H](COP(=O)([O-])O)[C@@H](O)[C@H]2O)cc1`: the IC50 worked out at 0.9 µM. As to `CC(C)CNc1nc2c(c(=O)[nH]1)[n+](C)cn2[C@@H]1O[C@H](COP(=O)([O-])O)[C@@H](O)[C@H]1O`, the IC50 worked out at 4.5 µM. Still for that read-out and setting: for `C[n+]1cn([C@@H]2O[C@H](COP(=O)([O-])O)[C@@H](O)[C@H]2O)c2nc(N)[nH]c(=O)c21` the value was more than 50 µM.

On to `C[n+]1cn([C@@H]2O[C@H](COP(=O)([O-])O)[C@@H](O)[C@H]2O)c2nc(N(Cc3ccccc3)Cc3ccccc3)[nH]c(=O)c21`, for which the IC50 was more than 50 µM.

As for `CCCCN(C)c1nc2c(c(=O)[nH]1)[n+](C)cn2[C@@H]1O[C@H](COP(=O)([O-])O)[C@@H](O)[C@H]1O`, the IC50 is more than 50 µM. Same read-out and setting: with `C[n+]1cn([C@@H]2O[C@H](COP(=O)([O-])O)[C@@H](O)[C@H]2O)c2nc(NCc3ccc(-c4ccccc4)cc3)[nH]c(=O)c21` the figure was 4.3 µM; with `C[n+]1cn([C@@H]2O[C@H](COP(=O)([O-])O)[C@@H](O)[C@H]2O)c2nc(NCc3ccc([N+](=O)[O-])cc3)[nH]c(=O)c21`, 12.6 µM. Same read-out and setting: with `CC(C)CN(C)c1nc2c(c(=O)[nH]1)[n+](C)cn2[C@@H]1O[C@H](COP(=O)([O-])O)[C@@H](O)[C@H]1O` the figure was more than 50 µM; with `C[n+]1cn([C@@H]2O[C@H](COP(=O)([O-])O)[C@@H](O)[C@H]2O)c2nc(NCC3CCCCC3)[nH]c(=O)c21`, 5.7 µM; with `CN(Cc1ccccc1)c1nc2c(c(=O)[nH]1)[n+](C)cn2[C@@H]1O[C@H](COP(=O)([O-])O)[C@@H](O)[C@H]1O`, more than 50 µM. The same measure, in the same setting: for `CCCCNc1nc2c(c(=O)[nH]1)[n+](C)cn2[C@@H]1O[C@H](COP(=O)([O-])O)[C@@H](O)[C@H]1O` the value was 3.9 µM. Regarding `C[n+]1cn([C@@H]2O[C@H](COP(=O)([O-])O)[C@@H](O)[C@H]2O)c2nc(NCc3ccc(Cl)cc3)[nH]c(=O)c21`, the IC50 worked out at 3.8 µM.

As for `C[n+]1cn([C@@H]2O[C@H](COP(=O)([O-])O)[C@@H](O)[C@H]2O)c2nc(NCc3ccccc3)[nH]c(=O)c21`, the IC50 worked out at 2.9 µM. Take `CCN(C)c1nc2c(c(=O)[nH]1)[n+](C)cn2[C@@H]1O[C@H](COP(=O)([O-])O)[C@@H](O)[C@H]1O`: the IC50 is 13.9 µM.

With `C[n+]1cn([C@@H]2O[C@H](COP(=O)([O-])OP(=O)(O)OP(=O)(O)O)[C@@H](O)[C@H]2O)c2nc(N)[nH]c(=O)c21`, the IC50 is 6.1 µM.

The test system of a further assay is Ascaris suum. Put plainly: Ratio of m7GTP IC50 to compound IC50 for Ascaris suum eIF4E-3 assessed as inhibition of cap-dependent translation after 1 hr by cell-free Renilla luciferase reporter gene assay. (A reporter such as luciferase makes a cellular process visible.)
For `COc1ccc(CNc2nc3c(c(=O)[nH]2)[n+](C)cn3[C@@H]2O[C@H](COP(=O)([O-])O)[C@@H](O)[C@H]2O)cc1`, the Ratio IC50 worked out at 7.
